Laboratory results taken from publication PMC11969024, “Development of chemokine network inhibitors using combinatorial saturation mutagenesis” (Communications Biology, 2025).

Tested on: THP1 cells, activated T-cells (ATC), J:CXCR1 cells
Assay: Meta-analysis of individual chemokine-induced cell migration experiments
Type: cell-based, human
Conditions: seven CC and three CXC chemokines, Dunnett's test
Method: Cell migration assays were performed as follows. THP1 cell migration. Briefly, 300000 cells/well were added to the top chamber of a 5-µm 96-well Transwell insert (3387, Corning) in 50 µL of cell migration media (RPMI-1640 (R0883, Sigma), 0.5% FBS (F9665, Sigma), 4mM L-Glutamine (G7513, Sigma), 0.05% DMSO (D4540, Sigma)). The bottom chamber contained 150 µL of migration media with chemokine and peptide. Cells were migrated at 37 °C in 5% CO2 for 4 h. J:CXCR1 cell migration was performed exactly as above using a 3-µm Transwell insert (3385, Corning). Activated T-cell migration. Briefly, 100000 cells/well were added to the top chamber of a 3-µm Transwell insert (3385, Corning) in 50 µL of migration media (HBSS (14025-092, Life Technologies), 0.1% protease free bovine serum albumin (A7030, Sigma), 0.05% DMSO (D4540, Sigma)). The bottom chamber contained 150 µL of migration media with chemokine and peptide. Cells were migrated at 37 °C in 5% CO2 for 2 h. Buffy coat migration. Briefly, a mixture of all cell types at 100000 cells/well were added to the top chamber of a 3-µm Transwell insert (3385, Corning) in 50 µL of migration media (HBSS (14025-092, Life Technologies), 0.1% protease free bovine serum albumin (A7030, Sigma), 0.05% DMSO (D4540, Sigma). The bottom chamber contained 150 µL of migration media with chemokine and peptide. Cells were migrated at 37 °C in 5% CO2 for 2 h. Analysis of cell migration. The migration plate was shaken at 850 RPM for 10 min, and media from bottom plate transferred to a round-bottomed 96 well plate (353910, Falcon). Cells were counted by flow cytometry as described above. Experiments were performed at chemokine EC80 for individual chemotaxis experiments and at EC50 for the pooled chemokine experiments, with three technical replicates, and at least three biological replicates. Statistical significance of differences between control and test groups was evaluated using a two-sided Dunnett’s test with multiple testing correction. Chemokine EC80 or chemokine pool EC50 values were as determined by performing a chemokine dose-response against the cell type and fitting the dose-response curve with a 3-parameter log-logistic model, where the maximal response is fixed at 100% response. […] IC50 was determined by performing inhibitor dose-response experiments and fitting the dose-response curve with a 3-parameter log-logistic model, fixing the bottom of the curve to zero. […] For summary statistics and comparisons, pEC50, pEC80 and pIC50 were calculated as the negative log10 of EC50, EC80 or IC50 expressed in moles/litre.
Sample size and estimated effect sizes were not formally calculated for cell-based or phage-display experiments and no randomization was performed. […]

Sequence	migrated cell count over all chemokines studied, compared to HD2 (meta-analysis)
EEDDYWAYAPLTCYFT [HD2T6W, HD2 point mutant]	significant improvement over HD2
EEDDWTAYAPLTCYFT [HD2Y5W, HD2 point mutant]	significant improvement over HD2
